According to publication PMC4366281 (Nature chemical biology, 2015):

Target: T1, MtbVKOR (Mycobacterium tuberculosis, UniProt I6X5W1)
T1 sequence (I6X5W1 1-210): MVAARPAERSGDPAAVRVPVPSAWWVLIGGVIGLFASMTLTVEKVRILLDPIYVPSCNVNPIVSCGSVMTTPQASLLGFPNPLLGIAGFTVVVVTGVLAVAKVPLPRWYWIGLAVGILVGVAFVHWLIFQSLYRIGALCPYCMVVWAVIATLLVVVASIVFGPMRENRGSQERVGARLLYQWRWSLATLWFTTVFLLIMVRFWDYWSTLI
Assay: HTS agar 384-well X-Gal assay, MtbVKOR-complemented E. coli dsbB null strain
Format: cell-based
Conditions: agar assay / re-test

## O=C1c2ccccc2C(=O)C1c1ccc(Br)cc1 [brominedione]
  inhibition of MtbVKOR-dependent E. coli strain: specific hit
